The source made the active and inactive calls. How the calls were made is not given here.
System: rodent carcinogenicity bioassays, tumor incidence
Assay: CCRIS carcinogenicity studies
Summary of the method: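 Archive of carcinogenicity, mutagenicity, tumor promotion and tumor inhibition results drawn from journals, NCI reports and other sources, expert-reviewed; covers 1985-2011 and is no longer updated.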

Measured: carcinogen call

CN(C)CCOC(c1ccccc1)c1ccccc1
inactive: Species: MOUSE, Strain/Sex: B6C3F1/FEMALE, Route: ORAL, Dose: 0, 156, 313 PPM IN FEED FOR 103 WK (STUDY DURATION: 106 WK), Dose: 0, 156, 313 PPM IN FEED FOR 103 WK (STUDY DURATION: 106 WK) inactive; negative | Species: MOUSE, Strain/Sex: B6C3F1/MALE, Route: ORAL, Dose: 0, 156, 313 PPM IN FEED FOR 105 WK (STUDY DURATION: 106 WK), Dose: 0, 156, 313 PPM IN FEED FOR 105 WK (STUDY DURATION: 106 WK) inactive; negative | Species: RAT, Strain/Sex: F344/FEMALE, Route: ORAL, Dose: 0, 2000 PPM IN DIET FOR 106 WK (STUDY DURATION: 130 WK) inactive; negative | Species: RAT, Strain/Sex: F344/MALE, Route: ORAL, Dose: 0, 2000 PPM IN DIET FOR 106 WK (STUDY DURATION: 130 WK) inactive; negative
equivocal: Species: RAT, Strain/Sex: F344/FEMALE, Route: ORAL, Dose: 0, 156, 313 PPM IN FEED FOR 103 WK (STUDY DURATION: 106 WK), Dose: 0, 156, 313 PPM IN FEED FOR 103 WK (STUDY DURATION: 106 WK), Tumor Site: Type of Lesion: PITUITARY GLAND: ADENOMA | Species: RAT, Strain/Sex: F344/MALE, Route: ORAL, Dose: 0, 313, 625 PPM IN FEED FOR 103 WK (STUDY DURATION: 106 WK), Dose: 0, 313, 625 PPM IN FEED FOR 103 WK (STUDY DURATION: 106 WK), Tumor Site: Type of Lesion: BRAIN: ASTROCYTOMA OR GLIOMA, LUNG: ALVEOLAR/BRONCHIOLAR ADENOMA OR CARCINOMA

C[C@]12C=CC(=O)C=C1CC[C@@H]1[C@@H]2[C@@H](O)C[C@@]2(C)[C@H]1CC[C@]2(O)C(=O)CO
inactive: Species: RAT, Strain/Sex: SPRAGUE-DAWLEY/FEMALE, Route: GAVAGE, Dose: 0, 3 MG/KG ADMINISTERED 1, 2, 4.5 OR 9 TIMES PER MO FOR 18 MO TO GIVE MEDIAN TOTAL DOSES OF 54, 108, 234, 468 MG/KG (STU, Dose: 0, 3 MG/KG ADMINISTERED 1, 2, 4.5 OR 9 TIMES PER MO FOR 18 MO TO GIVE MEDIAN TOTAL DOSES OF 54, 108, 234, 468 MG/KG (STU inactive; negative
active: Species: RAT, Strain/Sex: SPRAGUE-DAWLEY/MALE, Route: ORAL, Dose: 0, 40 UG/ML IN DRINKING WATER FOR AN AVERAGE DAILY DOSE OF 368 UG/KG FOR 104 WK (STUDY DURATION: 104 WK), Tumor Site: Type of Lesion: LIVER: HEPATOCELLULAR ADENOMA OR CARCINOMA active; positive

ONc1ccc2ccccc2c1
active: Species: DOG, Strain/Sex: BEAGLE, Route: INTRAVESICULAR, Dose: 5 MG IN DMSO EVERY TWO WK FOR 30 MO, Tumor Site: Type of Lesion: URINARY BLADDER: PAPILLARY TRANSITIONAL CELL CARCINOMA (INVASIVE) active; positive | Species: MOUSE, Strain/Sex: BALB, Route: SUBCUTANEOUS, Dose: 100 UG IN AQUEOUS GELATIN 1/D FOR 5 D, Tumor Site: Type of Lesion: LUNG: ADENOMA active; positive | Species: MOUSE, Strain/Sex: SWISS/FEMALE, Route: SUBCUTANEOUS, Dose: 100 UG IN GELATIN ON D 1, 3 AND 5 OF LIFE, Tumor Site: Type of Lesion: LUNG: ADENOMA, CARCINOMA active; positive | Species: MOUSE, Strain/Sex: SWISS/MALE, Route: SUBCUTANEOUS, Dose: 100 UG IN GELATIN ON D 1, 3 AND 5 OF LIFE, Tumor Site: Type of Lesion: LIVER: HEPATOMA active; positive | Species: RAT, Strain/Sex: STRAIN-CB/MALE, Route: INTRAPERITONEAL, Dose: 50 MG/KG IN ARACHIS OIL 2/WK FOR 3 MO, Tumor Site: Type of Lesion: PERITONEAL CAVITY: SARCOMA, CARCINOMA active; positive

CNc1ccc(N=Nc2ccccc2)cc1
active: Species: MOUSE, Strain/Sex: B6C3F1/MALE, Route: INTRAPERITONEAL, Dose: 0, 0.017, 0.05, 0.15, 0.45 UMOL/G ONCE IN TRIOCTANOIN (STUDY DURATION: 10 MO), Dose: 0, 0.017, 0.05, 0.15, 0.45 UMOL/G ONCE IN TRIOCTANOIN (STUDY DURATION: 10 MO), Tumor Site: Type of Lesion: LIVER: HEPATOMA active; positive | Species: MOUSE, Strain/Sex: B6C3F1/MALE, Route: INTRAPERITONEAL, Dose: 0, 0.3 UMOL/G IN TRIOCTANOIN ONCE ON DAY 1 FOLLOWED BY 0.4 UMOL/G ONCE ON DAY 8, 15 AND 22 (STUDY DURATION: 10 MO), Tumor Site: Type of Lesion: LIVER: HEPATOMA active; positive | Species: MOUSE, Strain/Sex: C3H/MALE, Route: INTRAPERITONEAL, Dose: 0, 0.45 UMOL/G ONCE IN TRIOCTANOIN (STUDY DURATION: 11 MO), Tumor Site: Type of Lesion: LIVER: HEPATOMA active; positive | Species: MOUSE, Strain/Sex: C57BL/MALE, Route: INTRAPERITONEAL, Dose: 0, 0.45 UMOL/G ONCE IN TRIOCTANOIN (STUDY DURATION: 11 MO), Tumor Site: Type of Lesion: LIVER: HEPATOMA active; positive | Species: RAT, Strain/Sex: F344/MALE, Route: INTRAPERITONEAL, Dose: 0, 0.3 UMOL/G IN TRIOCTANOIN ONCE ON DAY 1 FOLLOWED BY 0.4 UMOL/G ONCE ON DAY 8, 15 AND 22 (STUDY DURATION: 24 MO), Tumor Site: Type of Lesion: LIVER: HEPTOCELLULAR CARCINOMA active; positive | Species: RAT, Strain/Sex: SHERMAN, Route: ORAL, Dose: 0.056% IN DIET FOR 132 TO 250 D, Tumor Site: Type of Lesion: LIVER: HEPATOMA active; positive | Species: RAT, Strain/Sex: SPRAGUE-DAWLEY/MALE, Route: ORAL, Dose: 0.056% IN DIET FOR 4 MO, Tumor Site: Type of Lesion: LIVER: HEPATOMA active; positive
inactive: Species: MOUSE, Strain/Sex: B6C3F1/FEMALE, Route: INTRAPERITONEAL, Dose: 0, 0.3 UMOL/G IN TRIOCTANOIN ONCE ON DAY 1 FOLLOWED BY 0.4 UMOL/G ONCE ON DAY 8, 15 AND 22 (STUDY DURATION: 10 MO) inactive; negative

CC1=C(C(=O)OCCN(Cc2ccccc2)c2ccccc2)C(c2cccc([N+](=O)[O-])c2)C(P2(=O)OCC(C)(C)CO2)=C(C)N1 (configuration not stated)
inactive: Species: MOUSE, Strain/Sex: B6C3F1/FEMALE, Route: ORAL, Dose: 0, 500, 1600, 5000 PPM IN FEED FOR 104 WK (STUDY DURATION: 104 WK), Dose: 0, 500, 1600, 5000 PPM IN FEED FOR 104 WK (STUDY DURATION: 104 WK) inactive; negative | Species: MOUSE, Strain/Sex: B6C3F1/MALE, Route: ORAL, Dose: 0, 500, 1600, 5000 PPM IN FEED FOR 104 WK (STUDY DURATION: 104 WK), Dose: 0, 500, 1600, 5000 PPM IN FEED FOR 104 WK (STUDY DURATION: 104 WK) inactive; negative | Species: RAT, Strain/Sex: F344/FEMALE, Route: ORAL, Dose: 0, 400, 1200, 3600 PPM IN FEED FOR 104 WK (STUDY DURATION: 104 WK), Dose: 0, 400, 1200, 3600 PPM IN FEED FOR 104 WK (STUDY DURATION: 104 WK) inactive; negative | Species: RAT, Strain/Sex: F344/MALE, Route: ORAL, Dose: 0, 400, 1200, 3600 PPM IN FEED FOR 104 WK (STUDY DURATION: 104 WK), Dose: 0, 400, 1200, 3600 PPM IN FEED FOR 104 WK (STUDY DURATION: 104 WK) inactive; negative

CC(C)(C)c1cc([N+](=O)[O-])cc([N+](=O)[O-])c1OS(C)(=O)=O
inactive: Species: RAT, Strain/Sex: SPRAGUE-DAWLEY/FEMALE, Route: ORAL, Dose: 0, 25, 100, 400 PPM IN DIET FOR 1 YR (STUDY DURATION: 1 YR), Dose: 0, 25, 100, 400 PPM IN DIET FOR 1 YR (STUDY DURATION: 1 YR) inactive; negative | Species: RAT, Strain/Sex: SPRAGUE-DAWLEY/MALE, Route: ORAL, Dose: 0, 25, 100, 400 PPM IN DIET FOR 1 YR (STUDY DURATION: 1 YR), Dose: 0, 25, 100, 400 PPM IN DIET FOR 1 YR (STUDY DURATION: 1 YR) inactive; negative
